Measurements: US9381208B2, “Structure and use of 5′ phosphate oligonucleotides” (Rheinische Friedrich-Wilhelms-Universität, priority 2006, dated 2016)
Oligonucleotides are written 5' to 3', each unit as a sugar letter and its base; * is a phosphorothioate linkage, no mark a phosphodiester; rarer units and linkages stand in square brackets, end groups in braces. Plain capitals give the bases only. {ppp} = triphosphate group; r = 2'-OH (RNA)

Test system: human primary monocytes
Assay: IFN-α production in human primary monocytes transfected with RNA (ELISA)
Type: cell-based
Settings: for IFN-α production in monocytes: 200 ng RNA transfected, 24 hours, ELISA; for IFN-α induction (*100%) mean: monocytes from three donors, 36 hours after transfection, normalized to the mean induction level of all oligonucleotides (=100%); for IFN-α-inducing activity conferred by the 5′ 4-nucleotide sequence: adenosine-initiated in vitro transcribed RNA oligonucleotides, FIG. 13

Substance | IFN-α production in monocytes | IFN-α inducing activity after cleavage of the 5′ overhang by RNAse T1 (monocytes) | IFN-α induction (*100%) mean | IFN-α-inducing activity conferred by the 5′ 4-nucleotide sequence
tri-GFPds: annealed dsRNA molecule of tri-GFPs (SEQ ID NO: 341) and tri-GFPa (SEQ ID NO: 348) (sense {ppp}-rGrGrGrGrCrUrGrArCrCrCrUrGrArArGrUrUrCrArUrCrUrU; antisense {ppp}-rGrGrGrGrArUrGrArArCrUrUrCrArGrGrGrUrCrArGrCrUrU; in vitro transcribed strands annealed as dsRNA) | comparable levels of IFN-α | completely abolished the IFN-α inducing activity | – | –
auuuggggac acacacacac acacacacac (AUUUGGGGACACACACACACACACACACAC; RNA, 5' {ppp}, backbone not given here) [SEQ ID No. 138] | – | – | 0.99 *100% | –
agaaggggac acacacacac acacacacac (AGAAGGGGACACACACACACACACACACAC; RNA, 5' {ppp}, backbone not given here) [SEQ ID No. 165] | – | – | 1.29 *100% | highest IFN-α-inducing activity
aaagggggac acacacacac acacacacac (AAAGGGGGACACACACACACACACACACAC; RNA, 5' {ppp}, backbone not given here) [SEQ ID No. 173] | – | – | 1.40 *100% | highest IFN-α-inducing activity
acgcggggac acacacacac acacacacac (ACGCGGGGACACACACACACACACACACAC; RNA, 5' {ppp}, backbone not given here) [SEQ ID No. 147] | – | – | 1.08 *100% | highest IFN-α-inducing activity
auuaggggac acacacacac acacacacac (AUUAGGGGACACACACACACACACACACAC; RNA, 5' {ppp}, backbone not given here) [SEQ ID No. 171] | – | – | 1.36 *100% | highest IFN-α-inducing activity
aagaggggac acacacacac acacacacac (AAGAGGGGACACACACACACACACACACAC; RNA, 5' {ppp}, backbone not given here) [SEQ ID No. 134] | – | – | 0.95 *100% | –
accgggggac acacacacac acacacacac (ACCGGGGGACACACACACACACACACACAC; RNA, 5' {ppp}, backbone not given here) [SEQ ID No. 122] | – | – | 0.73 *100% | –
aauaggggac acacacacac acacacacac (AAUAGGGGACACACACACACACACACACAC; RNA, 5' {ppp}, backbone not given here) [SEQ ID No. 112] | – | – | 0.40 *100% | –
5′-pppGGGAGACAGGGGGGGGGGGGGGGGGGGGGGG-3′ [tri-poly G] | equally potent | – | – | –
auggggggac acacacacac acacacacac (AUGGGGGGACACACACACACACACACACAC; RNA, 5' {ppp}, backbone not given here) [SEQ ID No. 172] | – | – | 1.38 *100% | highest IFN-α-inducing activity
aucgggggac acacacacac acacacacac (AUCGGGGGACACACACACACACACACACAC; RNA, 5' {ppp}, backbone not given here) [SEQ ID No. 162] | – | – | 1.28 *100% | highest IFN-α-inducing activity
acacggggac acacacacac acacacacac (ACACGGGGACACACACACACACACACACAC; RNA, 5' {ppp}, backbone not given here) [SEQ ID No. 135] | – | – | 0.95 *100% | –
agcaggggac acacacacac acacacacac (AGCAGGGGACACACACACACACACACACAC; RNA, 5' {ppp}, backbone not given here) [SEQ ID No. 164] | – | – | 1.29 *100% | highest IFN-α-inducing activity
5′-PPPGGGAGACAGGAAAAAAAAAAAAAAAAAAAAA-3′ [tri-poly A] | equally potent | – | – | –
acuuggggac acacacacac acacacacac (ACUUGGGGACACACACACACACACACACAC; RNA, 5' {ppp}, backbone not given here) [SEQ ID No. 118] | – | – | 0.66 *100% | –
agcgggggac acacacacac acacacacac (AGCGGGGGACACACACACACACACACACAC; RNA, 5' {ppp}, backbone not given here) [SEQ ID No. 115] | – | – | 0.52 *100% | –
acucggggac acacacacac acacacacac (ACUCGGGGACACACACACACACACACACAC; RNA, 5' {ppp}, backbone not given here) [SEQ ID No. 137] | – | – | 0.98 *100% | –
Lipopolysaccharide [LPS, reference compound] | did not contribute to IFN-α production | – | – | –
aaaaggggac acacacacac acacacacac (AAAAGGGGACACACACACACACACACACAC; RNA, 5' {ppp}, backbone not given here) [SEQ ID No. 121] | – | – | 0.73 *100% | –

Substance | IFN-α production in monocytes | IFN-α inducing activity after cleavage of the 5′ overhang by RNAse T1 (monocytes) | IFN-α induction (*100%) mean | IFN-α-inducing activity conferred by the 5′ 4-nucleotide sequence
aaggggggac acacacacac acacacacac (AAGGGGGGACACACACACACACACACACAC; RNA, 5' {ppp}, backbone not given here) [SEQ ID No. 149] | – | – | 1.11 *100% | highest IFN-α-inducing activity
aacaggggac acacacacac acacacacac (AACAGGGGACACACACACACACACACACAC; RNA, 5' {ppp}, backbone not given here) [SEQ ID No. 166] | – | – | 1.30 *100% | highest IFN-α-inducing activity
aacgggggac acacacacac acacacacac (AACGGGGGACACACACACACACACACACAC; RNA, 5' {ppp}, backbone not given here) [SEQ ID No. 170] | – | – | 1.34 *100% | highest IFN-α-inducing activity
acugggggac acacacacac acacacacac (ACUGGGGGACACACACACACACACACACAC; RNA, 5' {ppp}, backbone not given here) [SEQ ID No. 152] | – | – | 1.14 *100% | highest IFN-α-inducing activity
aggaggggac acacacacac acacacacac (AGGAGGGGACACACACACACACACACACAC; RNA, 5' {ppp}, backbone not given here) [SEQ ID No. 161] | – | – | 1.27 *100% | highest IFN-α-inducing activity
accuggggac acacacacac acacacacac (ACCUGGGGACACACACACACACACACACAC; RNA, 5' {ppp}, backbone not given here) [SEQ ID No. 124] | – | – | 0.76 *100% | –
aguaggggac acacacacac acacacacac (AGUAGGGGACACACACACACACACACACAC; RNA, 5' {ppp}, backbone not given here) [SEQ ID No. 158] | – | – | 1.22 *100% | highest IFN-α-inducing activity
agucggggac acacacacac acacacacac (AGUCGGGGACACACACACACACACACACAC; RNA, 5' {ppp}, backbone not given here) [SEQ ID No. 140] | – | – | 1.00 *100% | highest IFN-α-inducing activity
auaaggggac acacacacac acacacacac (AUAAGGGGACACACACACACACACACACAC; RNA, 5' {ppp}, backbone not given here) [SEQ ID No. 127] | – | – | 0.82 *100% | –
acuaggggac acacacacac acacacacac (ACUAGGGGACACACACACACACACACACAC; RNA, 5' {ppp}, backbone not given here) [SEQ ID No. 117] | – | – | 0.62 *100% | –
auccggggac acacacacac acacacacac (AUCCGGGGACACACACACACACACACACAC; RNA, 5' {ppp}, backbone not given here) [SEQ ID No. 141] | – | – | 1.01 *100% | highest IFN-α-inducing activity
agggggggac acacacacac acacacacac (AGGGGGGGACACACACACACACACACACAC; RNA, 5' {ppp}, backbone not given here) [SEQ ID No. 111] | – | – | 0.22 *100% | –
augaggggac acacacacac acacacacac (AUGAGGGGACACACACACACACACACACAC; RNA, 5' {ppp}, backbone not given here) [SEQ ID No. 169] | – | – | 1.32 *100% | highest IFN-α-inducing activity
5′-PPPGGG AGACAGGUUUUUUUUUUUUUUUUUUUUU-3′ (GGGAGACAGGUUUUUUUUUUUUUUUUUUUUU; RNA, 5' {ppp}, backbone not given here) [tri-poly U] | equally potent | – | – | –
5′-pppAGGGAAGCGGGCAUGCGGCCAGCCAUAGCCGAUCA-3′ [AΦ6.5-35 n] | clear superiority | – | – | –
acguggggac acacacacac acacacacac (ACGUGGGGACACACACACACACACACACAC; RNA, 5' {ppp}, backbone not given here) [SEQ ID No. 125] | – | – | 0.77 *100% | –
5′-PPPGGGAGACAGGCCCCCCCCCCCCCCCCCCCCC-3′ [tri-poly C] | equally potent | – | – | –
auagggggac acacacacac acacacacac (AUAGGGGGACACACACACACACACACACAC; RNA, 5' {ppp}, backbone not given here) [SEQ ID No. 123] | – | – | 0.76 *100% | –
aucuggggac acacacacac acacacacac (AUCUGGGGACACACACACACACACACACAC; RNA, 5' {ppp}, backbone not given here) [SEQ ID No. 133] | – | – | 0.94 *100% | –
acgaggggac acacacacac acacacacac (ACGAGGGGACACACACACACACACACACAC; RNA, 5' {ppp}, backbone not given here) [SEQ ID No. 151] | – | – | 1.14 *100% | highest IFN-α-inducing activity
